Strand notation (5' to 3'): a small letter for the sugar, then the base; units joined by * are phosphorothioate-linked, units joined directly phosphodiester-linked; [ ] holds rarer units or linkages, { } end groups; capitals alone tell only the bases. [ms] = mesyl phosphoramidate linkage; e = 2'-O-(2-methoxyethyl) (MOE); k = constrained ethyl (cEt); [5mC] = 5-methylcytosine; d = 2'-deoxy (DNA)
How the values were obtained:
[1] = tested on: human APOE RNA; assay: Activity in APOE C57BL/6NTac-Apoeem7250 knock-in mice, single ICV bolus, 16 weeks (Example 12); assay type: in vivo; conditions: single ICV bolus 300 μg, 16 weeks post treatment, normalized to mouse Ppia
Method: Modified oligonucleotides described above were tested in the APOE C57BL/6NTac-Apoeem7250 knock-in mouse model described above.
APOE C57BL/6NTac-Apoeem7250 knock-in mice were divided into groups of 3-4 mice each. Each mouse received a single intracerebroventricular (ICV) bolus of 300 μg of modified oligonucleotide. A group of 4 mice received a single ICV bolus with PBS as a negative control.
Sixteen weeks post treatment, mice were sacrificed and RNA was extracted from cortical brain tissue and spinal cord for quantitative real-time RT-PCR analysis of RNA expression of APOE using primer probe set RTS3073 (described herein above). APOE RNA levels were normalized to mouse Ppia. Mouse Ppia was amplified using primer probe set m_cyclo24 (described herein above). Results are presented as percent human APOE RNA relative to the amount of human APOE RNA in PBS treated animals, (% control). Each experiment is identified in separate tables below.

[2] = tested on: human APOE RNA; assay: Dose-dependent inhibition of human APOE RNA in HepG2 cells, electroporation, 24 hours (Example 6); assay type: cell-based
Method: Modified oligonucleotides selected from the examples above were tested at various doses in HepG2.
HepG2 cells plated at a density of 50,000 cells per well were treated by electroporation with various concentrations of modified oligonucleotide as specified in the tables below. […] APOE RNA levels were measured using the human primer probe set RTS3073 (described herein above). APOE RNA levels were normalized to human GAPDH. Human GAPDH was amplified using human primer probe set RTS 104 (described herein above). Results are presented as percent APOE RNA, relative to the amount of APOE RNA in untreated control cells (% UTC). The half maximal inhibitory concentration (IC50) of each modified oligonucleotide was calculated in GraphPad Prism 10 (GraphPad Software, San Diego, CA) and is also presented in the tables below.

## 1693074: 5-10-5 MOE gapmer ACTTGGTGAATCTTTATTAA, linkages ssosssszzzzzsssssss (eA*e[5mC]*eTeT*eG*dG*dT*dG[ms]dA[ms]dA[ms]dT[ms]d[5mC][ms]dT*dT*dT*eA*eT*eT*eA*eA) [compound 1693074]
[1]
  APOE RNA (% control) Cortex: 84 % control
  APOE RNA (% control) Spinal Cord: 71 % control

## 1693075: 5-10-5 MOE gapmer ACTTGGTGAATCTTTATTAA, linkages ssssssszzzzzsssssss (eA*e[5mC]*eT*eT*eG*dG*dT*dG[ms]dA[ms]dA[ms]dT[ms]d[5mC][ms]dT*dT*dT*eA*eT*eT*eA*eA) [compound 1693075]
[1]
  APOE RNA (% control) Cortex: 87 % control
  APOE RNA (% control) Spinal Cord: 64 % control

## 1693078: 6-10-4 MOE gapmer TTGGTGAATCTTTATTAAAC, linkages ssossszzszssszssoss (eT*eT*eGeG*eT*eG*dA[ms]dA[ms]dT*d[5mC][ms]dT*dT*dT*dA[ms]dT*dT*eAeA*eA*e[5mC]) [compound 1693078]
[1]
  APOE RNA (% control) Cortex: 98 % control
  APOE RNA (% control) Spinal Cord: 99 % control

## 1693069: 5-10-5 MOE gapmer ACTTGGTGAATCTTTATTAA, linkages ssssosszzzszsssssss (antisense eA*e[5mC]*eT*eT*eGdG*dT*dG[ms]dA[ms]dA[ms]dT*d[5mC][ms]dT*dT*dT*eA*eT*eT*eA*eA) [compound 1693069]
[1]
  APOE RNA (% control) Cortex: 78 % control
  APOE RNA (% control) Spinal Cord: 66 % control

## 1693067: 5-10-5 MOE gapmer ACTTGGTGAATCTTTATTAA, linkages ssosssszzzszsssssss (antisense eA*e[5mC]*eTeT*eG*dG*dT*dG[ms]dA[ms]dA[ms]dT*d[5mC][ms]dT*dT*dT*eA*eT*eT*eA*eA) [compound 1693067]
[1]
  APOE RNA (% control) Cortex: 97 % control
  APOE RNA (% control) Spinal Cord: 162 % control

## 1693143: 6-10-4 MOE gapmer ACTTGGTGAATCTTTATTAA, linkages ssossszzzssssszsss (as printed) (sugars from the 5' end e6 d10 e4, all C 5-methyl, backbone not given here; further chemistry not fully specified) [compound 1693143]
[1]
  APOE RNA (% control) Cortex: 76 % control
  APOE RNA (% control) Spinal Cord: 64 % control

## 1693071: 5-10-5 MOE gapmer ACTTGGTGAATCTTTATTAA, linkages ssssssszzzzzsssosss (antisense eA*e[5mC]*eT*eT*eG*dG*dT*dG[ms]dA[ms]dA[ms]dT[ms]d[5mC][ms]dT*dT*dT*eAeT*eT*eA*eA) [compound 1693071]
[1]
  APOE RNA (% control) Cortex: 68 % control
  APOE RNA (% control) Spinal Cord: 66 % control

## 1693057: 5-10-5 MOE gapmer TTGGTGAATCTTTATTAAAC, linkages ssssszzzssssszsosss (antisense eT*eT*eG*eG*eT*dG[ms]dA[ms]dA[ms]dT*d[5mC]*dT*dT*dT*dA[ms]dT*eTeA*eA*eA*e[5mC]) [compound 1693057]
[1]
  APOE RNA (% control) Cortex: 125 % control
  APOE RNA (% control) Spinal Cord: 101 % control

## 1693062: 5-10-5 MOE gapmer TTGGTGAATCTTTATTAAAC, linkages ssssozzzsssszzsssss (antisense eT*eT*eG*eG*eTdG[ms]dA[ms]dA[ms]dT*d[5mC]*dT*dT*dT[ms]dA[ms]dT*eT*eA*eA*eA*e[5mC]) [compound 1693062]
[1]
  APOE RNA (% control) Cortex: 98 % control
  APOE RNA (% control) Spinal Cord: 110 % control

## 1693056: 5-10-5 MOE gapmer TTGGTGAATCTTTATTAAAC, linkages ssosszzzssssszsosss (antisense eT*eT*eGeG*eT*dG[ms]dA[ms]dA[ms]dT*d[5mC]*dT*dT*dT*dA[ms]dT*eTeA*eA*eA*e[5mC]) [compound 1693056]
[1]
  APOE RNA (% control) Cortex: 105 % control
  APOE RNA (% control) Spinal Cord: 118 % control

## 1693060: 5-10-5 MOE gapmer TTGGTGAATCTTTATTAAAC, linkages ssssszzzsssszzsosss (antisense eT*eT*eG*eG*eT*dG[ms]dA[ms]dA[ms]dT*d[5mC]*dT*dT*dT[ms]dA[ms]dT*eTeA*eA*eA*e[5mC]) [compound 1693060]
[1]
  APOE RNA (% control) Cortex: 93 % control
  APOE RNA (% control) Spinal Cord: 93 % control

## 1736519: 6-10-4 MOE gapmer CTTGGTGAATCTTTATTAAA, linkages sososszzzssssssssss (e[5mC]*eTeT*eGeG*eT*dG[ms]dA[ms]dA[ms]dT*d[5mC]*dT*dT*dT*dA*dT*eT*eA*eA*eA) [compound 1736519]
[2]
  IC50: 340 nM
[2]; 5 nM
  APOE RNA (% UTC): 107 % UTC
[2]; 13 nM
  APOE RNA (% UTC): 104 % UTC
[2]; 33 nM
  APOE RNA (% UTC): 91 % UTC
[2]; 82 nM
  APOE RNA (% UTC): 75 % UTC
[2]; 205 nM
  APOE RNA (% UTC): 53 % UTC
[2]; 512 nM
  APOE RNA (% UTC): 42 % UTC
[2]; 1,280 nM
  APOE RNA (% UTC): 25 % UTC
[2]; 3,200 nM
  APOE RNA (% UTC): 15 % UTC
[2]; 8,000 nM
  APOE RNA (% UTC): 16 % UTC
[2]; 20,000 nM
  APOE RNA (% UTC): 5 % UTC

## 1693073: 5-10-5 MOE gapmer ACTTGGTGAATCTTTATTAA, linkages sssossszzzzzsssssss (eA*e[5mC]*eT*eTeG*dG*dT*dG[ms]dA[ms]dA[ms]dT[ms]d[5mC][ms]dT*dT*dT*eA*eT*eT*eA*eA) [compound 1693073]
[1]
  APOE RNA (% control) Cortex: 107 % control
  APOE RNA (% control) Spinal Cord: 52 % control

## 1693081: 6-10-4 MOE gapmer TTGGTGAATCTTTATTAAAC, linkages sssssozzszssszssoss (eT*eT*eG*eG*eT*eGdA[ms]dA[ms]dT*d[5mC][ms]dT*dT*dT*dA[ms]dT*dT*eAeA*eA*e[5mC]) [compound 1693081]
[1]
  APOE RNA (% control) Cortex: 91 % control
  APOE RNA (% control) Spinal Cord: 100 % control

## 1736517 (e[5mC]*eTeTeG*kG*kT*dG[ms]dA[ms]dA[ms]dT*d[5mC]*dT*dT*dT*dA[ms]dT*eT*eA*eA*eA; antisense) [Compound 1736517]
[2]
  IC50: 470 nM
[2]; 5 nM
  APOE RNA (% UTC): 106 % UTC
[2]; 13 nM
  APOE RNA (% UTC): 92 % UTC
[2]; 33 nM
  APOE RNA (% UTC): 94 % UTC
[2]; 82 nM
  APOE RNA (% UTC): 84 % UTC
[2]; 205 nM
  APOE RNA (% UTC): 57 % UTC
[2]; 512 nM
  APOE RNA (% UTC): 42 % UTC
[2]; 1,280 nM
  APOE RNA (% UTC): 35 % UTC
[2]; 3,200 nM
  APOE RNA (% UTC): 22 % UTC
[2]; 8,000 nM
  APOE RNA (% UTC): 13 % UTC
[2]; 20,000 nM
  APOE RNA (% UTC): 10 % UTC

## 1736516 (e[5mC]*eTeTeG*eG*kT*dG[ms]dA[ms]dA[ms]dT*d[5mC]*dT*dT*dT*dA[ms]dT*eT*eA*eA*eA; antisense) [Compound 1736516]
[2]
  IC50: 1140 nM
[2]; 5 nM
  APOE RNA (% UTC): 106 % UTC
[2]; 13 nM
  APOE RNA (% UTC): 110 % UTC
[2]; 33 nM
  APOE RNA (% UTC): 121 % UTC
[2]; 82 nM
  APOE RNA (% UTC): 117 % UTC
[2]; 205 nM
  APOE RNA (% UTC): 58 % UTC
[2]; 512 nM
  APOE RNA (% UTC): 59 % UTC
[2]; 1,280 nM
  APOE RNA (% UTC): 39 % UTC
[2]; 3,200 nM
  APOE RNA (% UTC): 29 % UTC
[2]; 8,000 nM
  APOE RNA (% UTC): 32 % UTC
[2]; 20,000 nM
  APOE RNA (% UTC): 22 % UTC

## 1736518: 6-10-4 MOE gapmer CTTGGTGAATCTTTATTAAA, linkages soossszzzssssssssss (e[5mC]*eTeTeG*eG*eT*dG[ms]dA[ms]dA[ms]dT*d[5mC]*dT*dT*dT*dA*dT*eT*eA*eA*eA) [compound 1736518]
[2]
  IC50: 720 nM
[2]; 5 nM
  APOE RNA (% UTC): 93 % UTC
[2]; 13 nM
  APOE RNA (% UTC): 97 % UTC
[2]; 33 nM
  APOE RNA (% UTC): 99 % UTC
[2]; 82 nM
  APOE RNA (% UTC): 83 % UTC
[2]; 205 nM
  APOE RNA (% UTC): 64 % UTC
[2]; 512 nM
  APOE RNA (% UTC): 44 % UTC
[2]; 1,280 nM
  APOE RNA (% UTC): 37 % UTC
[2]; 3,200 nM
  APOE RNA (% UTC): 31 % UTC
[2]; 8,000 nM
  APOE RNA (% UTC): 30 % UTC
[2]; 20,000 nM
  APOE RNA (% UTC): 13 % UTC

Reference: US20250353873A1, “COMPOUNDS AND METHODS FOR MODULATING APOE EXPRESSION” (Ionis Pharmaceuticals, Inc., priority 2024, published 2025)
